Activity calls are given as the source filed them. No cut-off for these calls is given here.

The test system of test [1] is U-373MG ATCC. Briefly: Antiproliferative activity against human U373MG cells assessed as effect on cell number at 1 nM to 10 uM incubated for 1 to 6 days by trypan blue dye exclusion dye based inverted microscopy. In kind it is functional.
Test [2] has as its system U-373MG ATCC. Briefly: Antiproliferative activity against human U373MG cells assessed reduction in cell number at 1 nM and 10 uM incubated for 1 to 6 days by trypan blue dye exclusion dye based inverted microscopy. In kind it is functional.
In test [3] the test system is U-373MG ATCC. As to the kind of experiment: Induction of cell proliferation of human U373MG cells at 1 nM and 10 nM incubated for 1 to 6 days by trypan blue dye exclusion dye based inverted microscopy. In kind it is functional.
Test [4] is described as follows: Antiproliferative activity against human U373MG cells assessed reduction in cell number at 10 uM incubated for 6 days by trypan blue dye exclusion dye based inverted microscopy. In kind it is functional, U-373MG ATCC. To be noted: U373 MG, 144 h.
Test [5] has as its system U-373MG ATCC. As to the kind of experiment: Antiproliferative activity against human U373MG cells assessed reduction in cell number at 10 uM incubated for 1 to 6 days by trypan blue dye exclusion dye based inverted microscopy. In kind it is functional.
Test [6] deals with U-373MG ATCC. Briefly: Antiproliferative activity against human U373MG cells assessed reduction in cell number at 1 nM and 5 uM incubated for 1 to 6 days by trypan blue dye exclusion dye based inverted microscopy. The class given is functional.
For test [7], the system named is U-373MG ATCC. As to the kind of experiment: Antiproliferative activity against human U373MG cells assessed reduction in cell number at 1 nM and 10 nM incubated for 1 to 6 days by trypan blue dye exclusion dye based inverted microscopy. The class given is functional.

Take `COc1ccc2c(c1)c(CC(=O)O)c(C)n2C(=O)c1ccc(Cl)cc1`: the outcome in the test on U-373MG ATCC [1] was inactive.

In the case of `CC(C(=O)O)c1cccc(C(=O)c2ccccc2)c1` (stereo not drawn), the outcome with U-373MG ATCC [1] was inactive.

For the compound `COc1ccc2cc([C@H](C)C(=O)O)ccc2c1`, the outcome with U-373MG ATCC [1] was inactive.

Turning to `COc1ccc2cc([C@@H](C)C(=O)O[C@@H]3C=C4C(=O)C[C@@H]5[C@H](CC[C@]6(C)C(C(C)=O)=CC[C@@H]56)[C@@]4(C)CC3)ccc2c1`, the outcome with U-373MG ATCC [2], with U-373MG ATCC [1] and in the test with U-373MG ATCC [3] was Active. Moreover, the IC50 in test [4] was found to be 17.7 µM.

In the case of `CC(=O)C1=CC[C@H]2[C@@H]3CC(=O)C4=C[C@@H](OC(=O)[C@H](C)c5cccc(C(=O)c6ccccc6)c5)CC[C@]4(C)[C@H]3CC[C@]12C`, in the test with U-373MG ATCC [1], the outcome was inactive.

`COc1ccc2c(c1)c(CC(=O)O[C@@H]1C=C3C(=O)C[C@@H]4[C@H](CC[C@]5(C)C(C(C)=O)=CC[C@@H]45)[C@@]3(C)CC1)c(C)n2C(=O)c1ccc(Cl)cc1`: the result in the test on U-373MG ATCC [1] and in the test with U-373MG ATCC [5] was Active. Moreover, in test [4], the IC50 amounted to 0.016 µM.

For the compound `CC(=O)C1=CC[C@H]2[C@@H]3CC(=O)C4=C[C@@H](O)CC[C@]4(C)[C@H]3CC[C@]12C`, 3.02 µM corresponded to half-maximal inhibition in test [4] (IC50). For the same compound, in the test on U-373MG ATCC [6], the outcome was Active.

As to `CC1=C(CC(=O)O)c2cc(F)ccc2/C1=C\c1ccc([S+](C)[O-])cc1` (stereo not drawn), the outcome with U-373MG ATCC [1] and in the test on U-373MG ATCC [7] was Active.

For `CC(C)Cc1ccc(C(C)C(=O)O)cc1` (stereo not drawn), the result in the test with U-373MG ATCC [1] was inactive.

Turning to `CC(=O)C1=CC[C@H]2[C@@H]3CC(=O)C4=C[C@@H](OC(=O)[C@H](C)c5ccc(CC(C)C)cc5)CC[C@]4(C)[C@H]3CC[C@]12C`, the outcome in the test on U-373MG ATCC [1] and with U-373MG ATCC [5] was Active.
